# Data: BindingDB's records for doi:10.1016/j.chembiol.2011.03.012 (Riken Advanced Science Institute, 2011)
# Biological target: DNA topoisomerase 2-alpha (Homo sapiens, UniProt P11388)
# Assay: Inhibition Assay
# Settings: pH 7.5; 4 °C
# Description: In vitro inhibition of TOP2 alpha activity by BNS derivatives.
# DNA topoisomerase 2-alpha, sequence (P11388 whole entry): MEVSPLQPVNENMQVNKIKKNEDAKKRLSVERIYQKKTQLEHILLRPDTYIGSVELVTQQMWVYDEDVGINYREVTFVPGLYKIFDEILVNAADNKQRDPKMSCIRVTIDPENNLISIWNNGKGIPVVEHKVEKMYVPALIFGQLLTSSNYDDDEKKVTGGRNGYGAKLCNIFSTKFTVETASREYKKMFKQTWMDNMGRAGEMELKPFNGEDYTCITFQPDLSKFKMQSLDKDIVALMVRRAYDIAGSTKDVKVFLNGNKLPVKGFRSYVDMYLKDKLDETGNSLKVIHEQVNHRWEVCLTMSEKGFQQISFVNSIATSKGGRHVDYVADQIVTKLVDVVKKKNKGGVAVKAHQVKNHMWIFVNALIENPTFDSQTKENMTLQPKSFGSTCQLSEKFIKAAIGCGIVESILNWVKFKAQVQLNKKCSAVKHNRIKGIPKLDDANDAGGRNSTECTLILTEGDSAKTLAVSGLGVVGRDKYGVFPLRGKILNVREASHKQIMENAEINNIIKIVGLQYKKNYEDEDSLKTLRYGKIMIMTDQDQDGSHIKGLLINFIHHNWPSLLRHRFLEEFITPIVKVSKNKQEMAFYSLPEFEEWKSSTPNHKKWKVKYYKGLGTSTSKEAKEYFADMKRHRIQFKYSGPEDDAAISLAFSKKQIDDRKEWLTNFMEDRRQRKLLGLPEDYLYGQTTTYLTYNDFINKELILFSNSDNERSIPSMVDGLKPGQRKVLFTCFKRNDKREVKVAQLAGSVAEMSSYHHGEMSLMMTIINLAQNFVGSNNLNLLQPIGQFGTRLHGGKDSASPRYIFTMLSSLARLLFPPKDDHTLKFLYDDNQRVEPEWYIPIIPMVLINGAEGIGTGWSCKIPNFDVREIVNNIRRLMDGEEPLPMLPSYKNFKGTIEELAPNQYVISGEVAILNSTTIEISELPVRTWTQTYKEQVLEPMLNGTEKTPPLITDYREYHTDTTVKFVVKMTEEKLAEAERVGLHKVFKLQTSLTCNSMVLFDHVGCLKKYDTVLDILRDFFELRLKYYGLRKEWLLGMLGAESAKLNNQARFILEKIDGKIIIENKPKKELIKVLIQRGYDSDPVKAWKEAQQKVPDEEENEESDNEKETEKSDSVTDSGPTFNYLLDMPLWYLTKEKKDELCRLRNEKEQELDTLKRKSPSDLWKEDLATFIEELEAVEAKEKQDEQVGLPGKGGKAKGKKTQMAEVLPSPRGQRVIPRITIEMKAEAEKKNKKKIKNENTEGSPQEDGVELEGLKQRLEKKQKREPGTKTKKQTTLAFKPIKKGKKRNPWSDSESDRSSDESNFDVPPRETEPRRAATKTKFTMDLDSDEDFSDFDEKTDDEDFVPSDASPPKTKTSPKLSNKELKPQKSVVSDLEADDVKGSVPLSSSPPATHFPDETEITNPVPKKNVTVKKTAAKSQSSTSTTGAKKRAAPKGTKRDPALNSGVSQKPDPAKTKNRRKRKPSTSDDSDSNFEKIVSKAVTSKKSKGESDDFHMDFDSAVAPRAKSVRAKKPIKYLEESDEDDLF
row,SMILES,IC50
1,CCCc1cc(=O)oc2c(C(=O)N3CCC(Cc4ccccc4)CC3)c(OC)cc(OC)c12 [BNS-53],> 100 µM
2,CCCc1cc(=O)oc2c(C(=O)N3CCCCC3)c(OC)cc(OC)c12 [BNS-54],> 100 µM

# Next, values leading:
row,IC50,SMILES
1,2.8 µM,CCCc1cc(=O)oc2c(C(=O)N3CCCc4ccccc43)c(OC)cc(OC)c12 [BNS-22]
2,> 100 µM,CCCc1cc(=O)oc2c(C(=O)N3CCc4ccccc4C3)c(OC)cc(OC)c12 [BNS-52]
3,8.2 µM,COC(=O)Cc1cc(=O)oc2c(C(=O)N3CCCc4ccccc43)c(OC)cc(OC)c12 [BNS-65]
